Results published in ChEMBL document CHEMBL5634159, “Discovery of novel tumor-targeted near-infrared probes with 6-substituted pyrrolo[2,3-d]pyrimidines as targeting ligands” (Eur J Med Chem, 2023).
Activity calls are given as the source filed them. No cut-off for these calls is given here.

What was measured:
[1] = Ex vivo biodistribution in BALB/c mouse tumor of human KB cells expressing folate receptor alpha measured for 8 hrs by imaging analysis; type: ADME, organism-based, Neoplasm
[2] = Drug uptake in BALB/c nude mouse tumor xenografted with human KB cells assessed as increase in fluorescence signals measured for 2 days; type: ADME, tissue-based, Neoplasm; settings: in vivo, 48 h, time 2 day
[3] = Drug uptake in BALB/c mouse heart xenografted with human KB cells at 10 nmol measured for 8 hrs; type: ADME, tissue-based; settings: in vivo
HUVEC = experiment: Cytotoxicity against human HUVEC cells assessed as cell growth inhibition incubated for 24 hrs by CCK-8 assay; type: toxicity, cell-based
[4] = Drug uptake in BALB/c mouse kidney xenografted with human KB cells at 10 nmol measured for 8 hrs; type: ADME, tissue-based; settings: in vivo
[5] = Drug uptake in BALB/c mouse stomach xenografted with human KB cells at 10 nmol measured for 8 hrs; type: ADME, tissue-based; settings: in vivo
KB [6] = experiment: Binding affinity to Folate receptor in human KB cells assessed as relative fluorescence intensity preincubated with compound for 1 hr followed by folic acid addition and measured after 1 hr by flow cytometry analysis; type: cell-based; settings: time 2.0 hrs
[7] = Drug uptake in human A549 cells assessed as increase in fluorescence intensity in presence of folic acid by fluorescence microscopic analysis; type: ADME, cell-based
[8] = Drug uptake in BALB/c mouse liver xenografted with human KB cells at 10 nmol measured for 8 hrs; type: ADME, tissue-based; settings: in vivo
[9] = Drug uptake in mouse RAW264.7 cells assessed as increase in fluorescence intensity in presence of folic acid by fluorescence microscopic analysis; type: ADME, cell-based
[10] = Drug uptake in BALB/c mouse lung xenografted with human KB cells at 10 nmol measured for 8 hrs; type: ADME, tissue-based; settings: in vivo
[11] = Drug uptake in BALB/c mouse spleen xenografted with human KB cells at 10 nmol measured for 8 hrs; type: ADME, tissue-based; settings: in vivo
KB [12] = experiment: Binding affinity to Folate receptor in human KB cells assessed as relative fluorescence intensity incubated for compound for 1 hr by flow cytometry analysis; type: cell-based
[13] = Drug uptake in BALB/c mouse intestine xenografted with human KB cells at 10 nmol measured for 8 hrs; type: ADME, tissue-based; settings: in vivo
Folate receptor beta = Folate receptor beta (Mus musculus, UniProt Q05685); experiment: Binding affinity to Folate receptor beta in mouse RAW264.7 cells assessed as dissociation constant; type: cell-based
Folate receptor beta, sequence (Q05685 whole entry): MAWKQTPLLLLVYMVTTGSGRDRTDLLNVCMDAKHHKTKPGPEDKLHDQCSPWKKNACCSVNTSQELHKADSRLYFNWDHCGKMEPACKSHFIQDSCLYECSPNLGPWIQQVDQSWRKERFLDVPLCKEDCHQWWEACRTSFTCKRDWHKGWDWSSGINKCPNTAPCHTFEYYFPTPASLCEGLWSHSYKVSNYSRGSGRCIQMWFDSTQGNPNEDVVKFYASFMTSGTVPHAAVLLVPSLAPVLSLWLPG

KB [14] = experiment: Binding affinity to Folate receptor in human KB cells assessed as increase in fluorescence intensity incubated for 2 hrs by fluorescence microscopic analysis; type: cell-based
Folate receptor alpha = Folate receptor alpha (Homo sapiens, UniProt P15328); experiment: Binding affinity to Folate receptor alpha in human KB cells assessed as dissociation constant; type: cell-based
Folate receptor alpha, sequence (P15328 whole entry): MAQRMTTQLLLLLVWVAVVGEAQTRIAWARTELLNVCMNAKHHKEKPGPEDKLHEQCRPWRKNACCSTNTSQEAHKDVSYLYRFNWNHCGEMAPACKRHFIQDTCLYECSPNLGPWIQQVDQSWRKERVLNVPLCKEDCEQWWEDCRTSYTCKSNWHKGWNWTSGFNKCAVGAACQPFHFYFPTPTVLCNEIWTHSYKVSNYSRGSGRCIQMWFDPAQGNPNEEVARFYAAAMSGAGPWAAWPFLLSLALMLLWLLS

[15] = Acute toxicity in ICR mouse assessed as animal death at 10 micromol/ml measured for 14 days; settings: in vivo, 336 h, dose 10 µmol/ml, time 14 day
[16] = Drug uptake in BALB/c nude mouse tumor xenografted with human A549 cells assessed as increase in fluorescence signals measured for 2 days; type: ADME, tissue-based, Neoplasm; settings: 48 h, time 2 day
[17] = Ratio of biodistribution in tumor to heart of human KB cell xenografted in BALB/c mouse at 10 nmol measured for 8 hrs; type: ADME, organism-based; settings: in vivo
[18] = Acute toxicity in ICR mouse assessed as lung damage at 10 micromol/ml measured for 14 days by H and E staining based analysis; type: tissue-based; settings: in vivo, 336 h, dose 10 µmol/ml, time 14 day
[19] = Acute toxicity in ICR mouse assessed as effect on food intake at 10 micromol/ml measured for 14 days; settings: in vivo, 336 h, dose 10 µmol/ml, time 14 day
[20] = Drug uptake in BALB/c mouse tumor xenografted with human A549 cells at 10 nmol measured for 8 hrs in presence of folic acid; type: ADME, tissue-based, Neoplasm
[21] = Acute toxicity in ICR mouse assessed as effect on body weight at 10 micromol/ml measured for 14 days; settings: in vivo, 336 h, dose 10 µmol/ml, time 14 day
[22] = Drug uptake in BALB/c mouse tumor xenografted with human KB cells at 10 nmol measured for 8 hrs in presence of folic acid; type: ADME, tissue-based, Neoplasm; settings: in vivo
[23] = Half life in BALB/c mouse at 10 nmol measured for 8 hrs; type: ADME; settings: in vivo
[24] = Drug uptake in BALB/c mouse tumor xenografted with human KB cells at 10 nmol measured for 8 hrs; type: ADME, tissue-based, Neoplasm; settings: in vivo
[25] = Acute toxicity in ICR mouse assessed as spleen damage at 10 micromol/ml measured for 14 days by H and E staining based analysis; type: tissue-based; settings: in vivo, 336 h, dose 10 µmol/ml, time 14 day
[26] = Ratio of biodistribution in tumor to liver of human KB cell xenografted in BALB/c mouse at 10 nmol measured for 8 hrs; type: ADME, organism-based; settings: in vivo
[27] = Ratio of biodistribution in tumor to lung of human KB cell xenografted in BALB/c mouse at 10 nmol measured for 8 hrs; type: ADME, organism-based; settings: in vivo
[28] = Acute toxicity in ICR mouse assessed as liver damage at 10 micromol/ml measured for 14 days by H and E staining based analysis; type: tissue-based; settings: in vivo, 336 h, dose 10 µmol/ml, time 14 day
KB [29] = experiment: Binding affinity to Folate receptor in human KB cells assessed as relative fluorescence intensity incubated for 1 hr by flow cytometry analysis; type: cell-based
[30] = Acute toxicity in ICR mouse assessed as kidney damage at 10 micromol/ml measured for 14 days by H and E staining based analysis; type: tissue-based; settings: in vivo, 336 h, dose 10 µmol/ml, time 14 day
[31] = Acute toxicity in ICR mouse assessed as heart damage at 10 micromol/ml measured for 14 days by H and E staining based analysis; type: tissue-based; settings: in vivo, 336 h, dose 10 µmol/ml, time 14 day
[32] = Elimination half life in BALB/c mouse at 10 nmol measured for 8 hrs; type: ADME; settings: in vivo, read-out: beta t1/2 (converted)

Drug uptake [1] | Drug uptake [2] | Drug uptake [3] | Drug uptake [4] | Drug uptake [5] | Drug uptake [8] | Drug uptake [10] | Drug uptake [11] | Drug uptake [13] | Kd (Folate receptor beta) [nM] | Kd (Folate receptor alpha) [nM] | Compound | Activity (HUVEC) | Activity (KB [6]) | Activity (KB [12]) | Activity (KB [29]) | further results
Active | Active | Not Active | Not Active | Not Active | Not Active | Not Active | Not Active | Not Active | 26.1 | 39.8 | CC1(C)C(/C=C/C2=C(Oc3ccc(C[C@H](NC(=O)CNC(=O)Cc4cc5c(=O)[nH]c(N)nc5[nH]4)C(=O)O)cc3)C(=C/C=C3/N(CCCCS(=O)(=O)O)c4ccccc4C3(C)C)/CCC2)=[N+](CCCCS(=O)(=O)[O-])c2ccccc21 | Non-Toxic | Active | Active |  | Drug uptake [7]: Not Active; Drug uptake [9]: Not Active; Activity (KB [14]): Active
Active |  | Not Active | Not Active | Not Active | Not Active | Not Active | Not Active | Not Active | 58.9 | 81.9 | CC1(C)C(/C=C/C2=C(SC[C@H](NC(=O)CNC(=O)Cc3cc4c(=O)[nH]c(N)nc4[nH]3)C(=O)O)C(=C/C=C3/N(CCCCS(=O)(=O)O)c4ccccc4C3(C)C)/CCC2)=[N+](CCCCS(=O)(=O)[O-])c2ccccc21 | Non-Toxic |  | inactive |  | 
Active |  | Not Active | Not Active | Not Active | Not Active | Not Active | Not Active | Not Active | 47.9 | 61.2 | CC1(C)C(/C=C/C2=C(SC[C@@H](NC(=O)CC[C@H](NC(=O)CNC(=O)Cc3cc4c(=O)[nH]c(N)nc4[nH]3)C(=O)O)C(=O)O)C(=C/C=C3/N(CCCCS(=O)(=O)O)c4ccccc4C3(C)C)/CCC2)=[N+](CCCCS(=O)(=O)[O-])c2ccccc21 | Non-Toxic |  | inactive |  | 
 | Active |  |  |  | Active |  |  |  | 11 | 10.3 | CC1(C)C(/C=C/C2=C(Oc3ccc(C[C@H](NC(=O)c4ccc(CCCCc5cc6c(=O)[nH]c(N)nc6[nH]5)s4)C(=O)O)cc3)C(=C/C=C3/N(CCCCS(=O)(=O)O)c4ccccc4C3(C)C)/CCC2)=[N+](CCCCS(=O)(=O)[O-])c2ccccc21 | Non-Toxic | Active |  | Active | 
 | Active |  |  |  |  |  |  |  | 20.9 | 22.1 | CC1(C)C(/C=C/C2=C(Oc3ccc(C[C@H](NC(=O)c4ccc(NCc5cnc6nc(N)[nH]c(=O)c6n5)cc4)C(=O)O)cc3)C(=C/C=C3/N(CCCCS(=O)(=O)O)c4ccccc4C3(C)C)/CCC2)=[N+](CCCCS(=O)(=O)[O-])c2ccccc21 | Non-Toxic |  |  | Active | 

Compound | Drug uptake [1] | Drug uptake [2] | Drug uptake [3] | Drug uptake [4] | Drug uptake [5] | Drug uptake [8] | Drug uptake [10] | Drug uptake [11] | Drug uptake [13] | Kd (Folate receptor beta) [nM] | Kd (Folate receptor alpha) [nM] | Activity (HUVEC) | Activity (KB [6]) | Activity (KB [12]) | Activity (KB [29]) | further results
CC1(C)C(/C=C/C2=C(Oc3ccc(C[C@H](NC(=O)c4ccc(CCCCc5cc6c(=O)[nH]c(N)nc6[nH]5)cc4)C(=O)O)cc3)C(=C/C=C3/N(CCCCS(=O)(=O)O)c4ccccc4C3(C)C)/CCC2)=[N+](CCCCS(=O)(=O)[O-])c2ccccc21 |  | Active |  |  |  |  |  |  |  | 16 | 14.2 | Non-Toxic | Active |  | Active | Activity [15]: Non-Toxic; Drug uptake [16]: Not Active; Ratio [17]: 13; Activity [18]: Non-Toxic; Activity [19]: Non-Toxic; Drug uptake [20]: Not Active; Activity [21]: Non-Toxic; Drug uptake [22]: Not Active; half-life [23]: 15 min; Drug uptake [24]: Active; Activity [25]: Non-Toxic; Ratio [26]: 2; Ratio [27]: 8; Activity [28]: Non-Toxic; Activity [30]: Non-Toxic; Activity [31]: Non-Toxic; half-life [32]: 60 min
